Measured values reported in PMC4428629, “The Structure of an NDR/LATS Kinase–Mob Complex Reveals a Novel Kinase–Coactivator System and Substrate Docking Mechanism” (PLoS Biology, 2015).
Residues, ends and D or L forms follow the SMILES beside them.

Assays:
Cbk1^251-756-Mob2 = molecular target: T1, Cbk1^251-756-Mob2 (Saccharomyces cerevisiae, UniProt P43563+P53894); test: FP direct titration, Cbk1^251-756-Mob2 (WT); type: binding; settings: CF-labeled peptide 20 nM, Tris pH 8.0, triplicate, read-out: peptide binding affinity (table in Fig 5C)
T1 construct: His6-Cbk1^251–756 was co-expressed with GST-Mob2 (full length or 45–287); His6 (N); made in house
T1 sequence (P53894 251-756): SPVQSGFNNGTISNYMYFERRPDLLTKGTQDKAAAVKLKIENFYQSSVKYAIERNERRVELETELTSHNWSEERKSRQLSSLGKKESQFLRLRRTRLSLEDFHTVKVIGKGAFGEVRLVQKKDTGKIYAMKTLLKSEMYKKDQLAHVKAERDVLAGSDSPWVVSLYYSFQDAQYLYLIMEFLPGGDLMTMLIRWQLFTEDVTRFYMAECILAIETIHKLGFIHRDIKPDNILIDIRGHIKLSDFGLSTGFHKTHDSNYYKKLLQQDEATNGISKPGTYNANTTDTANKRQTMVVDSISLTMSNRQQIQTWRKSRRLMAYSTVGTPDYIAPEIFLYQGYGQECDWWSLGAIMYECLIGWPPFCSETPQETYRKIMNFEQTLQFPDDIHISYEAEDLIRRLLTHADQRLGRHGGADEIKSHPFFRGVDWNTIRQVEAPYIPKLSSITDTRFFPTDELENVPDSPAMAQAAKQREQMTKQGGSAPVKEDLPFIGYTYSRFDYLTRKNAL
T1 sequence (P43563 1-287 partner): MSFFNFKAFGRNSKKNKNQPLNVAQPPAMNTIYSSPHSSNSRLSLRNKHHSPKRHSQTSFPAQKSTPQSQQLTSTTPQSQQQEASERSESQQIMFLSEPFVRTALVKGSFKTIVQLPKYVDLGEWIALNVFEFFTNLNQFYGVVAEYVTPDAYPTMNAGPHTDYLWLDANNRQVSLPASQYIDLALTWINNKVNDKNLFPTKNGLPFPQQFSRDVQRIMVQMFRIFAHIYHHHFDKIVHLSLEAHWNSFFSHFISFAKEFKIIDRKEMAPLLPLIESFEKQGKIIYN
Protocol: His6-Cbk1^251–756 was co-expressed with GST-Mob2 (full length or 45–287). Cbk1 kinase domain alone (352–756 or 352–692) was expressed as GST-Cbk1-His6. All constructs were bacterially expressed and purified on a Ni-NTA resin (Qiagen) followed by glutathione Sepharose beads (GE Biosciences). For crystallization, tags were cleaved with TEV protease followed by cation exchange chromatography on a Resource S column. All Cbk1 preparations were subsequently dialyzed into Cbk1 buffer (20 mM Tris-HCl, 150 mM NaCl, 2 mM DTT [pH 8.0]).
For FP-based binding affinity measurements, different docking peptides (pepAce2: GSGSIIVTTNSANGGYQFP; pepSSD1: TTEQSDFKFP; pepHM: IGYTYSRFDY; pepHM-P: IGYpTYSRFDY) were N-terminally (pepAce2 and pepSSD1) or C-terminally (pepHM and pepHM-P) labeled with carboxyfluorescein (CF) fluorescent dyes.
Change in the FP signal in direct binding affinity measurements was monitored as a function of increasing concentration of protein with a Synergy H4 (BioTek Instruments) plate reader in 384-well plates. The labeled peptides were at 20 nM in 20 mM Tris (pH 8.0), 100 mM NaCl, 0.05% Brij35P, 2 mM DTT. The resulting binding isotherms were fit to a quadratic binding equation. The affinity of the unlabeled peptides was measured in steady-state competition experiments: 20 nM labeled reporter was mixed with protein samples in a concentration to achieve ~60%–80% complex formation. Subsequently, increasing amounts of unlabeled peptide were added, and the FP signal was measured as described earlier for direct titration experiments. The Kd for each unlabeled peptide interaction was determined by fitting the data to a competition binding equation. Titration experiments were carried out in triplicate, and the average FP signal was used for fitting the data with OriginPro 7.

Cbk1–Mob2 = test: In vitro pulldown of Cbk1–Mob2; type: binding, Saccharomyces cerevisiae
Protocol: Cbk1 substrates containing the docking motifs or substrate sites were bacterially expressed as MBP or GST fusions. For pulldown assays, MBP-fusion lysates were incubated with amylose resin (New England Biolabs) on ice for 15 min, followed by washing with PBS (137 mM NaCl, 2.7 mM KCl, 4.3 mM Na2HPO4, 1.4 mM KH2PO4 [pH 7.3]). GST fusions were purified on glutathione Sepharose beads followed by dialysis into Cbk1 buffer.
MBP fusions were incubated on bead with 1 μM purified Cbk1 on ice for 15 min. Samples were washed 3× with PBS (transferred to fresh tube on last wash), resuspended in SDS-PAGE buffer, and separated by SDS-PAGE. Samples were directly visualized with GelCode Blue (Pierce) or transferred to PVDF membrane for immunoblotting. Cbk1 was detected using His or pS570 primary antibodies. For experiments detected using α-pS570, antibody signal with pure protein was analyzed to control for lot-dependent variations in expression as well as variations between Cbk1 mutants (no variations detected).

[1] = system: Cbk1^251–756–Mob2 (T743E); test: Peptide kinase assay, WT Cbk1 (T743E); type: biochemical, Saccharomyces cerevisiae; settings: for 32P incorporation into peptide, Average: Average of Rep 1-4, 100 μM peptide, 50 nM kinase, 40 μM ATP, 1 h
Protocol: (§1) For peptide kinase assays, reactions were performed in the presence of 50 nM Cbk1^251–756–Mob2, 40 μM ATP, 2 mM DTT, 5 mM MnCl2, 2 μCi γ-^32P-ATP, and 100 μM Docktide ([…]) or AKAPtide ([…]). Reactions were initiated by the addition of ATP. Samples were quenched after 1 h by the addition of a 5-μl sample to P81 paper (Whatman) and subsequent submersion in 75 mM phosphoric acid to remove background γ-^32P-ATP. After drying, signal was determined by Čerenkov counting in an LS 6500 scintillation counter (Beckman). Counts per minute was efficiency corrected and converted to femtomoles ^32P followed by conversion to total ATP (labeled and unlabeled). Significance was determined by an unpaired two-tailed Student’s t-test.
(§2) Supplementary file pbio.1002146.s003.xlsx: S3 Data Enzymological characterization of the effects of Cbk1 docking. Assay data from experiments that used γ-^32P-ATP in protein kinase reactions with synthetic substrate peptides from Ssd1 that either contained both the core Cbk1 docking motif and a Cbk1 phosphorylation consensus motif (Docktide) or contained a core Cbk1 docking motif mutated to abrogate binding to the kinase and a Cbk1 consensus motif (AKAPtide). These kinase assays were performed either with Cbk1(T743E) or with Cbk1(Y687A/T743E). The latter construct carries a mutation that eliminates docking motif association with the kinase. (XLSX) Click here for additional data file.

Cbk1(Y687A/T743E) = test: Peptide kinase assay, Cbk1(Y687A/T743E); type: biochemical, Saccharomyces cerevisiae; settings: for 32P incorporation into peptide, Average: Average of Rep 1-4, 100 μM peptide, 50 nM kinase, 40 μM ATP, 1 h
Protocol: as §1, §2

Cbk1^Δ730–756–Mob2 = molecular target: T2, Cbk1^Δ730–756–Mob2 (Saccharomyces cerevisiae, UniProt P43563+P53894); test: biochemical; type: binding
T2 construct: His6-Cbk1^251–756 was co-expressed with GST-Mob2 (full length or 45–287); His6 (N); made in house
Excerpt: ND, not determined. […] (PDF) Click here for additional data file.

For C[C@@H](O)[C@H](N)C(=O)N[C@H](C(=O)N[C@@H](CCC(=O)O)C(=O)N[C@@H](CCC(N)=O)C(=O)N[C@@H](CO)C(=O)N[C@@H](CC(=O)O)C(=O)N[C@@H](Cc1ccccc1)C(=O)N[C@@H](CCCCN)C(=O)N[C@@H](Cc1ccccc1)C(=O)N1CCC[C@H]1C(=O)O)[C@@H](C)O [pepSSD1] (H-TTEQSDFKFP-OH), the Kd (Cbk1^251-756-Mob2) was 6 µM.

In the case of “Ssd1^208–214: Ssd1 docking fragment used for Cbk1 pulldown (QSDFKFP; UniProt P24276 208-214, looked up, fragment)”, the Cbk1 pulldown (Cbk1–Mob2; Cbk1 F699A mutant (Fig 5B)) is reported as “not nearby F699A abrogate Cbk1 pulldown” and the Cbk1 pulldown (Cbk1–Mob2; Cbk1 Y687A mutant (Fig 5B)) is reported as “abrogate Cbk1 pulldown”.

With “CDAKAPPPPNAHGGHRRATSN [AKAPtide, Ssd1-based peptide with mutated docking motif AKAP and Cbk1 consensus site]” the “32P incorporation into peptide, Average” value [1] was 57.4 fmol and the “32P incorporation into peptide, Average” value (Cbk1(Y687A/T743E)) was 45.5 fmol.

With CC[C@H](C)[C@H](N)C(=O)NCC(=O)N[C@@H](Cc1ccc(O)cc1)C(=O)N[C@H](C(=O)N[C@@H](Cc1ccc(O)cc1)C(=O)N[C@@H](CO)C(=O)N[C@@H](CCCNC(=N)N)C(=O)N[C@@H](Cc1ccccc1)C(=O)N[C@@H](CC(=O)O)C(=O)N[C@@H](Cc1ccc(O)cc1)C(=O)O)[C@@H](C)O [pepHM] (H-IGYTYSRFDY-OH) the Kd (Cbk1^Δ730–756–Mob2) was about 33 µM.

“CDFKFPPPPNAHGGHRRATSN [Docktide, Ssd1 (210–229)-based peptide with docking motif FKFP and Cbk1 consensus site]” was tested, and the “32P incorporation into peptide, Average” value [1] was 76.8 fmol, the “effect of WT docking motif on phosphorylation” value ([1]; relative to peptide with mutant docking motif (AKAPtide)) was “enhances phosphorylation by WT Cbk1” and the “32P incorporation into peptide, Average” value (Cbk1(Y687A/T743E)) was 45.9 fmol. For the same compound, the “effect of WT docking motif on phosphorylation” value (Cbk1(Y687A/T743E); Cbk1(Y687A)) was “loses this enhancement”.
